Where two headings read alike, the source gives them in different places.
Legend:
[1] = biological target: T1, human recombinant Monoacylglycerol Lipase (Homo sapiens, UniProt Q99685); assay: MAGL inhibition enzymatic assay (7-HCA fluorogenic substrate); format: biochemical; settings: geometric mean
T1 sequence (Q99685 1-303): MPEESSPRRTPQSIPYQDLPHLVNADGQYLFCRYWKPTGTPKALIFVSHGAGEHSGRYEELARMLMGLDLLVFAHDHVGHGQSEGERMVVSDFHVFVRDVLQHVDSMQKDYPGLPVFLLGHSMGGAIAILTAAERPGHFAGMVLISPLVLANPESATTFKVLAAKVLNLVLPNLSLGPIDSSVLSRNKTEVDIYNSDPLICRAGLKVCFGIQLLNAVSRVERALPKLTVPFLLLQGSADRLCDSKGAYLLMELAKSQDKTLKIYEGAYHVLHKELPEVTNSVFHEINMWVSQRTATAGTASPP
Method: (§1) Assessment of MAGL inhibition utilizes human recombinant Monoacylglycerol Lipase and the fluorogenic substrate 7-hydroxycoumarinyl arachidonate (7-HCA, Biomol ST-502). 400 nL of a test compound at decreasing concentration (ranging from 150 μM down to 1.5 nM) was spotted into a 384-well back plate (PerkinElmer, 6007279) using a Labcyte Echo, followed by addition of 10 μL of MAGL enzyme in assay buffer (50 mM HEPES, pH 7.4, 100 mM NaCl, 5 mM MgCl2, 0.1% Triton X-100 and 25% glycerin). An equal volume of 7-HCA in assay buffer with 10% DMSO was added either immediately (T=0 min) or after a 30 minute incubation (T=30 min) to initiate the reaction. The final concentration of MAGL enzyme was […] and 7-HCA substrate was 5 μM. After these dilutions, the final concentration of the test compound ranged from 3 μM to 0.03 nM. The reaction was allowed to progress for 60 minutes, after which the plate was read at an Ex/Em of 340/465. Percent inhibitions were calculated based on control wells containing no compound (0% inhibition) and a control compound (e.g., a MAGL inhibitor whose activity is known or was previously reported in the literature, such as one with about 100% inhibition). IC50 values were generated based on a four parameter fit model using ABASE software from IDBS. See e.g., Wang, Y. et al., “A Fluorescence-Based Assay for Monoacylglycerol Lipase Compatible with Inhibitor Screening,” Assay and Drug Development Technologies, 2008, Vol. 6 (3) pp 387-393 (reporting an assay for measuring MAGL activity).

[2] = biological target: T1, human recombinant Monoacylglycerol Lipase; assay: MAGL inactivation (enzyme progress curves, kinact/KI); format: biochemical; settings: geometric mean
Method: as §1
To measure MAGL inactivation, the same protocol for the (T=0 min) MAGL inhibition IC50 assay was performed with data collected every minute to acquire enzyme progress curves at decreasing concentrations of compound.

human recombinant FAAH = biological target: T2, human recombinant FAAH (Homo sapiens, UniProt O00519); assay: FAAH inhibition enzymatic assay (Arachidonoyl-AMC substrate); format: biochemical; settings: 30 minute incubation; geometric mean; read-out: FAAH (T = 30 min) IC50
T2 construct: purchased Cayman 10010183
T2 sequence (O00519 1-579): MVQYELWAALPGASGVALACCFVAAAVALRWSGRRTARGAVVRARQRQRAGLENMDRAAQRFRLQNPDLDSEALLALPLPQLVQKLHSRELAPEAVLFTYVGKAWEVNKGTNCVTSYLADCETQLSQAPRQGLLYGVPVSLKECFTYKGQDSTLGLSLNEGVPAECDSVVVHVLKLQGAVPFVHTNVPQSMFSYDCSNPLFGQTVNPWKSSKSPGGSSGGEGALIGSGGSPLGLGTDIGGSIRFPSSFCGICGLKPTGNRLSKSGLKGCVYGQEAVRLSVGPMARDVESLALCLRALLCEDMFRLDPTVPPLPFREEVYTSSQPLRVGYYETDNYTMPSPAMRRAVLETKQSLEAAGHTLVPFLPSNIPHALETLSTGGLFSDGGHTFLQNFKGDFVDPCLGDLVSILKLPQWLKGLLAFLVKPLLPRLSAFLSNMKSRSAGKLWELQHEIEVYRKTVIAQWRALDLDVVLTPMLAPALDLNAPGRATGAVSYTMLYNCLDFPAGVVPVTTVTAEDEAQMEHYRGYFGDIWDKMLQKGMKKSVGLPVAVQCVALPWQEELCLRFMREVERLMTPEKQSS
Method: Assessment of FAAH inhibition utilizes human recombinant FAAH and the fluorescent substrate, Arachidonoyl-AMC. 400 nL of a test compound at decreasing concentrations was spotted into a 384-well back plate (PerkinElmer, 6007279) using a Labcyte Echo, followed by addition of 10 μl of FAAH enzyme (Cayman 10010183) in assay buffer (50 mM Tris, pH 9.0, 1 mM EDTA, i.e. ethylenediaminetetraacetic acid). After a 30 minute incubation at room temperature, 10 μL of Arachidonyl-AMCA was added in assay buffer with 16% DMSO. […] The reaction was allowed to progress for 60 minutes, after which the plate was read on a Molecular Devices FlexStation reader at an Ex/Em of 355/460. Percent inhibitions were calculated based on controls wells containing either no compound (0% inhibition) or a control compound (e.g., an FAAH inhibitor whose activity is known or was previously reported in the literature, such as one with about 100% inhibition). IC50 values were generated based on a four parameter fit model using ABASE software from IDBS.

[3] = Dynamic vapor sorption (hygroscopicity); format: physicochemical; settings: 25° C.
Method: (§2) An automated vapor sorption analyzer (VTI SGA-CX; VTI scientific) was used to measure the hygroscopicity of the anhydrate of Form I of the invention. The microbalance was calibrated using a 100 mg standard weight. The relative humidity sensor was calibrated at 5.0, 11.3, 32.8, 52.8, 75.3, and 84.3% RH (25° C.) using saturated salt solutions, as well as 80% RH (25° C.) using polyvinylpyrrolidone. Approximately 8-10 mg of the powder sample was placed in the platinum sample pan and dried at 3% relative humidity (RH) at 25° C. with a heating rate of 1° C. per minute. The attainment of equilibrium was assumed when the weight change of the sample was <0.001 wt % in 5 min or by a maximum equilibration time of 120 minutes. […] Again, the attainment of equilibrium was assumed when the weight change of the sample was <0.001 wt % in 5 min or by a maximum equilibration time of 120 minutes. The weight gain at the end of the sorption cycle (90% RH) was calculated on the basis of the dry weight.
as §2, with “Moisture/Water sorption and desorption studies were conducted on automated” for “An automated”, “analyzer (TA instruments Q5000 SA).” for “analyzer (VTI SGA-CX; VTI scientific) was used to measure the hygroscopicity of the anhydrate of Form I of the invention.”, “salt solutions.” for “salt solutions, as well as 80% RH (25° C.) using polyvinylpyrrolidone.”, “Approximately 10-20” for “Approximately 8-10”, “at ≤3%” for “at 3%”, “C.” for “C. with a heating rate of 1° C. per minute.”

[4] = In vitro intrinsic clearance in human liver microsomes (HLM); format: in vitro ADME; settings: pH 7.4, 1 μM substrate, NADPH, 37° C., read-out: HLM CLint, app
Method: Test Compounds (Example 1-3 and Comparative-Compounds 1-4) were prepared as solutions in DMSO. The final concentration of DMSO in the incubation was <0.1% (v/v). […] (all final concentrations) in a 384-well plate. The reaction mixture was pre-warmed at 37° C. for 10 min prior to initiation of the incubation. The incubation was quenched with acetonitrile containing internal standards at the following time points: 1, 4, 7, 12, 20, 25, 45, and 60 min (individual incubation plates per time point) with a subsequent addition of water. The samples were vortexed followed by centrifugation and the supernatant was analyzed by LC/MS-MS using multiple reaction monitoring. For control experiments, NADPH was omitted from the incubations.
The microsomal t½ (min) was obtained from a log-linear plot of the substrate depletion versus incubation time and was scaled to hepatic intrinsic clearance (CLint,app (μL/min/mg protein) using the following equation: […]

[5] = In vitro intrinsic clearance in human hepatocytes; format: in vitro ADME; settings: 1 μM substrate, human hepatocytes 0.5 million viable cells per mL, 37° C.
Method: Test Compounds (Example 1-3 and Comparative-Compounds 1-4) were prepared as solutions in DMSO at 3 mM which were then diluted in media containing WEM. The final concentration of DMSO in the incubation was 0.03% (v/v). The in vitro half-life (t½) of each compound was determined in incubations containing substrate (1 μM), human hepatocytes (0.5 million viable cells per mL final concentration) in media containing WEM, 50 mM HEPES buffer (pH 7.4), and 26 mM sodium bicarbonate at 37° C. (all final concentrations) in a 96-well plate. The reaction mixture was pre-warmed at 37° C. for 30 min prior to the initiation of the incubation. The incubation was quenched with acetonitrile containing internal standards at the following time points: 0, 5, 15, 30, 60, 120, and 240 min (individual incubation plates per time point). The samples were vortexed followed by centrifugation. An aliquot of supernatant was transferred to a clean 96-well plate and analyzed by LC/MS-MS using multiple reaction monitoring. For control experiments, hepatocytes were omitted from the incubations.
The hepatocyte t½ (min) was obtained from a log-linear plot of the substrate depletion versus incubation time and was scaled to hepatic intrinsic clearance (CLint,app (μL/min/million cells) using the following equation: […]

[6] = 30 minute incubation before substrate, read-out: MAGL (T = 30 min) IC50
[7] = substrate added immediately (T=0 min), read-out: MAGL (T = 0 min) IC50

Row | Structure (SMILES) | IC50 [1, 6] | IC50 [1, 7] | MAGL kinact/KI [2] | IC50 (human recombinant FAAH) | DVS weight gain ([3]; 0-60% RH) | DVS weight gain ([3]; 60% RH) | DVS weight gain ([3]; 75% RH) | DVS weight gain ([3]; 90% RH) | DVS weight gain ([3]; at up to 90% RH) | microsomal CLint at 1 μM [4] | HHEPs CLint, app [5]
1 | O=C(OC(C(F)(F)F)C(F)(F)F)N1CCC2(CCC(NS(=O)(=O)CC3CC3)CO2)CC1 (single isomer, unassigned; ent-2) [Example 5, 1,1,1,3,3,3-Hexafluoropropan-2-yl 3-{[(cyclopropylmethyl)sulfonyl]amino}-1-oxa-9-azaspiro[5.5]undecane-9-carboxylate, ENT-2] | 10.1 nM | 103 nM | 6930 1/s per M | > 30000 nM | – | – | – | – | – | – | –
2 | O=C(OC(C(F)(F)F)C(F)(F)F)N1CCC2(CC1)C[C@@H](NS(=O)(=O)CC1CC1)CO2 [Form I, 1,1,1,3,3,3-Hexafluoropropan-2-yl (3R)-3-{[(cyclopropylmethyl)sulfonyl]amino}-1-oxa-8-azaspiro[4.5]decane-8-carboxylate] | – | – | – | – | 0-60% RH, 25° C.: <0.1% weight gain | 60% RH, 25° C.: <0.1% weight gain | 75% RH, 25° C.: <0.1% weight gain | 90% RH, 25° C.: <0.1% weight gain | less than 0.1% | – | –
3 | O=C(OC(C(F)(F)F)C(F)(F)F)N1CCC2(CC1)C[C@@H](NS(=O)(=O)C1CC1)CO2 [Form A, 1,1,1,3,3,3-hexafluoropropan-2-yl(3R)-3-[(cyclopropylsulfonyl)amino]-1-oxa-8-azaspiro[4.5]decane-8-carboxylate] | – | – | – | – | 0-60% RH, 25° C.: <0.1% weight gain | 60% RH, 25° C.: <0.1% weight gain | 75% RH, 25° C.: <0.1% weight gain | 90% RH, 25° C.: <0.1% weight gain | less than 0.1% | – | –
4 | O=C(OC(C(F)(F)F)C(F)(F)F)N1CCC2(CC1)C[C@@H](NS(=O)(=O)c1ccccc1)CO2 [Comparative-Compound 4, 1,1,1,3,3,3-hexafluoropropan-2-yl (3R)-3-[(phenylsulfonyl)amino]-1-oxa-8-azaspiro[4.5]decane-8-carboxylate] | – | – | – | – | – | – | – | – | – | 30.4 µL/min/mg | 27.5 μL/min/million
5 | O=C(OC(C(F)(F)F)C(F)(F)F)N1CCC2(CCC(NS(=O)(=O)CC3CC3)CO2)CC1 (single isomer, unassigned; ent-1) [Example 4, 1,1,1,3,3,3-Hexafluoropropan-2-yl 3-{[(cyclopropylmethyl)sulfonyl]amino}-1-oxa-9-azaspiro[5.5]undecane-9-carboxylate, ENT-1] | 20 nM | 162 nM | 3110 1/s per M | > 30000 nM | – | – | – | – | – | – | –
